Experimental data taken from US20050013821A1, “Mint extract and related pharmaceutical compositions” (priority 2001, published 2005).

Legend:
[1] = test system: burning pain sensations in the vicinity of the vulva or anus; experiment: Other trials of mint extract compositions (gel, cream, wipes, spray) applied topically against burning pains; assay type: in vivo, human
Experimental: The composition may comprise the extract or equivalent up to 10% w/w but it is preferably present in a concentration of not more than substantially 5% w/w of the composition.
Additional to these trials, compositions were prepared using menthol (and others using peppermint oil) embodied in a light cream (which included water) with which small pieces of soft cloth were impregnated to form wipes. […] Alternative combinations of ingredients could be utilised, e.g. as known to those skilled in the art, possibly including a pharmaceutically acceptable excipient for the active ingredient/s. Preferably, the composition should contain one or more of vitamins E, A and D combined with a moisturizing element in white soft paraffin form (obtained as “Vaseline”, Registered Trade Mark in the UK) or aloe form for delicate skins. The composition should preferably be formulated so that it is effectively greaseless and non-staining. It should not contain hexachlorophene.

[2] = Solubility of menthol in composition ingredients; assay type: physicochemical; conditions: in liquid paraffin, white soft paraffin and essential oils

solubility [2]: at least 10 % w/w
Structure (SMILES): CC1CCC(C(C)C)C(O)C1 (centres unmarked) [menthol]
outcome of trials as wipes ([1]; light cream (including water) impregnated on pieces of soft cloth): just as successful
relief compared with peppermint oil ([1]; menthol used instead of peppermint oil): Much improved relief
outcome of trials as spray ([1]; spray including glycols, glycerol and ethanol): used successfully
effect relative to peppermint oil ([1]; summary statement, related mint extracts): substantially more
